{
  "source": "patent US11325940B2",
  "about": "“Certain chemical entities, compositions, and methods” (NeuPharma, Inc., priority 2012, dated 2022)",
  "key": {"[1]": {"test": "Equilibrium solubility in aqueous buffer (HPLC UV)", "type": "physicochemical", "settings": "thermodynamic from solid", "experimental": "The equilibrium solubility of compounds was measured in aqueous buffer. Excess amount of solid compound was added into buffer solution and the sample was briefly sonicated and then shaken at rt for 24 h. The sample was filtered and the concentration was analyzed by HPLC UV. A standard solution at 0.2 mg/mL was prepared in methanol or acetonitrile for each compound and used as an external standard for quantification. The scale utilized in Tables 2 is as follows: +++ greater than 1 mg/mL; ++ between 1 and 0.1 mg/mL; and + less than 0.1 mg/mL."}, "A549 cells": {"tested_on": "A549 cells", "test": "Inhibition of cancer cell growth, MTT assay", "type": "cell-based", "settings": "Homo sapiens", "experimental": "Inhibition of cell growth by compounds was measured using MTT assay (Mosmann, T., Journal of Immunological Methods, 1983, 65, 55-63). Tumor cell lines were purchased from ATCC (American Type Culture Collection, Manassas, Va.). All cell lines were maintained in RPMI 1640 (Hyclone) supplemented with 10% fetal bovine serum (FBS, Hyclone), glutamine (2 mM, Hyclone), and antibiotics (penicillin 100 U/mL and streptomycin 50 μg/mL) at 37° C. in a humidified atmosphere of 5% CO2 in air. Taxol (as a positive control, Sigma) and compounds were dissolved in DMSO (Sigma), and the final concentration of DMSO in the medium was 1%. Tumor cells were plated in 96-well plates at densities of about 4000 cells/well of a 96-well plate and allowed to adhere/grow for 24 h. They were then treated with various concentrations of drug for 72 h. 3-(4,5-Dimethylthiazol-2-yl)-2,5-diphenyltetrazolium bromide (MTT, Sigma) was used to determine the number of viable cells at the time of compound addition and the number of cells remaining after 72 h compound exposure. The number of cells remaining after 72 h was compared to the number of viable cells at the time of compound addition by measuring the absorbance at 570 nm, allowing for the calculation of growth inhibition.\nAll concentrations of compounds were tested in triplicate and controls were averaged over 4 wells. IC50 was calculated by plotting the concentration of compound vs the percentage of inhibition in treated wells using GraphPad Prism 5. […] The scale utilized in Table 3 is as follows: ++++ less than 20 nM; +++ between 20 nM and 100 nM; ++ between 100 nM and 1000 nM; and + greater than 1000 nM."}, "[2]": {"settings": "aqueous buffer, equilibrium solubility, NaOAc/AcOH buffer (100 mM, pH 5.0), rt, 24 h, read-out: Solubility"}, "[3]": {"settings": "A549 cells, 72 h compound exposure, MTT, read-out: IC50"}},
  "note": "Where two headings read alike, the source gives them in different places.",
  "data": [
    {"smiles": "C[C@]12CC[C@H](NC(=O)N3CCOCC3)C[C@H]1CC[C@@H]1[C@@H]2CC[C@]2(C)[C@@H](c3ccc(=O)oc3)CC[C@]12O", "note": "[Compound C02, N-((3S,5R,8R,9S,10S,13R,14S,17R)-14-hydroxy-10,13-dimethyl-17-(2-oxo-2H-pyran-5-yl)hexadecahydro-1H-cyclopenta[a]phenanthren-3-yl)morpholine-4-carboxamide]", "values": [
      {"measurement": "solubility at 24 h", "setting": "[1]; [2]", "value": "< 100", "unit": "µg/mL"},
      {"measurement": "IC50", "setting": "A549 cells; [3]", "value": "< 20", "unit": "nM"}
    ]},
    {"smiles": "C[C@]12CC[C@H](NC(=O)N3CCNCC3)C[C@H]1CC[C@@H]1[C@@H]2CC[C@]2(C)[C@@H](c3ccc(=O)oc3)CC[C@]12O", "note": "[Compound C04, N-((3S,5R,8R,9S,10S,13R,14S,17R)-14-hydroxy-10,13-dimethyl-17-(2-oxo-2H-pyran-5-yl)hexadecahydro-1H-cyclopenta[a]phenanthren-3-yl)piperazine-1-carboxamide]", "values": [
      {"measurement": "solubility at 24 h", "setting": "[1]; [2]", "value": "> 1000", "unit": "µg/mL"},
      {"measurement": "IC50", "setting": "A549 cells; [3]", "value": "< 20", "unit": "nM"}
    ]},
    {"smiles": "C[C@]12CC[C@H](NC(=O)NCCN)C[C@H]1CC[C@@H]1[C@@H]2CC[C@]2(C)[C@@H](c3ccc(=O)oc3)CC[C@]12O", "note": "[Compound C10, 1-(2-aminoethyl)-3-((3S,5R,8R,9S,10S,13R,14S,17R)-14-hydroxy-10,13-dimethyl-17-(2-oxo-2H-pyran-5-yl)hexadecahydro-1H-cyclopenta[a]phenanthren-3-yl)urea]", "values": [
      {"measurement": "solubility at 24 h", "setting": "[1]; [2]", "value": "> 1000", "unit": "µg/mL"},
      {"measurement": "IC50", "setting": "A549 cells; [3]", "value": "< 20", "unit": "nM"}
    ]},
    {"smiles": "C[C@]12CC[C@H](NC(=O)CN)C[C@H]1CC[C@@H]1[C@@H]2CC[C@]2(C)[C@@H](c3ccc(=O)oc3)CC[C@]12O", "note": "[Compound C12, 2-amino-N-((3S,5R,8R,9S,10S,13R,14S,17R)-14-hydroxy-10,13-dimethyl-17-(2-oxo-2H-pyran-5-yl)hexadecahydro-1H-cyclopenta[a]phenanthren-3-yl)acetamide]", "values": [
      {"measurement": "solubility at 24 h", "setting": "[1]; [2]", "value": "> 1000", "unit": "µg/mL"},
      {"measurement": "IC50", "setting": "A549 cells; [3]", "value": "< 20", "unit": "nM"}
    ]},
    {"smiles": "C[C@]12CCC(NCCN3CCOCC3)C[C@H]1CC[C@@H]1[C@@H]2CC[C@]2(C)[C@@H](c3ccc(=O)oc3)CC[C@]12O", "note": "(stereo partly drawn) [Compound C18, 5-((5R,8R,9S,10S,13R,14S,17R)-14-hydroxy-10,13-dimethyl-3-((2-morpholinoethyl)amino)hexadecahydro-1H-cyclopenta[a]phenanthren-17-yl)-2H-pyran-2-one]", "values": [
      {"measurement": "solubility at 24 h", "setting": "[1]; [2]", "value": "> 1000", "unit": "µg/mL"},
      {"measurement": "IC50", "setting": "A549 cells; [3]", "value": "100 to 1000", "unit": "nM"}
    ]},
    {"smiles": "C[C@]12CCC(N3CCNC(=O)C3)C[C@H]1CC[C@@H]1[C@@H]2CC[C@]2(C)[C@@H](c3ccc(=O)oc3)CC[C@]12O", "note": "(stereo partly drawn) [Compound C19, 4-((5R,8R,9S,10S,13R,14S,17R)-14-hydroxy-10,13-dimethyl-17-(2-oxo-2H-pyran-5-yl)hexadecahydro-1H-cyclopenta[a]phenanthren-3-yl)piperazin-2-one]", "values": [
      {"measurement": "solubility at 24 h", "setting": "[1]; [2]", "value": "100 to 1000", "unit": "µg/mL"},
      {"measurement": "IC50", "setting": "A549 cells; [3]", "value": "20 to 100", "unit": "nM"}
    ]},
    {"smiles": "C[C@]12CCC(N3CCCC3)C[C@H]1CC[C@@H]1[C@@H]2CC[C@]2(C)[C@@H](c3ccc(=O)oc3)CC[C@]12O", "note": "(stereo partly drawn) [Compound C20, 5-((5R,8R,9S,10S,13R,14S,17R)-14-hydroxy-10,13-dimethyl-3-(pyrrolidin-1-yl)hexadecahydro-1H-cyclopenta[a]phenanthren-17-yl)-2H-pyran-2-one]", "values": [
      {"measurement": "solubility at 24 h", "setting": "[1]; [2]", "value": "> 1000", "unit": "µg/mL"},
      {"measurement": "IC50", "setting": "A549 cells; [3]", "value": "< 20", "unit": "nM"}
    ]},
    {"smiles": "CC(C)[C@@H](N)C(=O)N(C)C1CC[C@@]2(C)[C@H](CC[C@@H]3[C@@H]2CC[C@]2(C)[C@@H](c4ccc(=O)oc4)CC[C@]32O)C1", "note": "(stereo partly drawn) [Compound C22, (2R)-2-amino-N-((5R,8R,9S,10S,13R,14S,17R)-14-hydroxy-10,13-dimethyl-17-(2-oxo-2H-pyran-5-yl)hexadecahydro-1H-cyclopenta[a]phenanthren-3-yl)-N,3-dimethylbutanamide]", "values": [
      {"measurement": "solubility at 24 h", "setting": "[1]; [2]", "value": "> 1000", "unit": "µg/mL"},
      {"measurement": "IC50", "setting": "A549 cells; [3]", "value": "20 to 100", "unit": "nM"}
    ]},
    {"smiles": "C[C@]12CCC(NC(=O)N3CCNCC3)C[C@H]1CC[C@@H]1[C@@H]2CC[C@]2(C)[C@@H](C3=CC(=O)OC3)CC[C@]12O", "note": "(stereo partly drawn) [Compound C24, N-((5R,8R,9S,10S,13R,14S,17R)-14-hydroxy-10,13-dimethyl-17-(5-oxo-2,5-dihydrofuran-3-yl)hexadecahydro-1H-cyclopenta[a]phenanthren-3-yl)piperazine-1-carboxamide]", "values": [
      {"measurement": "solubility at 24 h", "setting": "[1]; pH 5, aqueous buffer", "value": "> 1000", "unit": "µg/mL"},
      {"measurement": "IC50", "setting": "A549 cells; [3]", "value": "20 to 100", "unit": "nM"}
    ]},
    {"smiles": "C[C@@H](N)C(=O)N[C@H]1CC[C@@]2(C)[C@H](CC[C@@H]3[C@@H]2CC[C@]2(C)[C@@H](c4ccc(=O)oc4)CC[C@]32O)C1", "note": "[Compound C26, (R)-2-amino-N-((3S,5R,8R,9S,10S,13R,14S,17R)-14-hydroxy-10,13-dimethyl-17-(2-oxo-2H-pyran-5-yl)hexadecahydro-1H-cyclopenta[a]phenanthren-3-yl)propanamide]", "values": [
      {"measurement": "solubility at 24 h", "setting": "[1]; [2]", "value": "> 1000", "unit": "µg/mL"},
      {"measurement": "IC50", "setting": "A549 cells; [3]", "value": "< 20", "unit": "nM"}
    ]},
    {"smiles": "C[C@]12CCC(NCCN3CCCC3)C[C@H]1CC[C@@H]1[C@@H]2CC[C@]2(C)[C@@H](c3ccc(=O)oc3)CC[C@]12O", "note": "(stereo partly drawn) [Compound C27, 5-((5R,8R,9S,10S,13R,14S,17R)-14-hydroxy-10,13-dimethyl-3-((2-(pyrrolidin-1-yl)ethyl)amino)hexadecahydro-1H-cyclopenta[a]phenanthren-17-yl)-2H-pyran-2-one]", "values": [
      {"measurement": "solubility at 24 h", "setting": "[1]; [2]", "value": "> 1000", "unit": "µg/mL"},
      {"measurement": "IC50", "setting": "A549 cells; [3]", "value": "< 20", "unit": "nM"}
    ]},
    {"smiles": "C[C@]12CCC(N3CCOCC3)C[C@H]1CC[C@@H]1[C@@H]2CC[C@]2(C)[C@@H](c3ccc(=O)oc3)CC[C@]12O", "note": "(stereo partly drawn) [Compound C28, 5-((5R,8R,9S,10S,13R,14S,17R)-14-hydroxy-10,13-dimethyl-3-morpholinohexadecahydro-1H-cyclopenta[a]phenanthren-17-yl)-2H-pyran-2-one]", "values": [
      {"measurement": "solubility at 24 h", "setting": "[1]; [2]", "value": "> 1000", "unit": "µg/mL"},
      {"measurement": "IC50", "setting": "A549 cells; [3]", "value": "100 to 1000", "unit": "nM"}
    ]},
    {"smiles": "C[C@]12CCC(NC(=O)N3CCOCC3)C[C@@]1(O)CC[C@@H]1[C@@H]2CC[C@]2(C)[C@@H](c3ccc(=O)oc3)CC[C@]12O", "note": "(stereo partly drawn) [Compound C30, N-((5S,8R,9S,10R,13R,14S,17R)-5,14-dihydroxy-10,13-dimethyl-17-(2-oxo-2H-pyran-5-yl)hexadecahydro-1H-cyclopenta[a]phenanthren-3-yl)morpholine-4-carboxamide]", "values": [
      {"measurement": "solubility at 24 h", "setting": "[1]; [2]", "value": "100 to 1000", "unit": "µg/mL"},
      {"measurement": "IC50", "setting": "A549 cells; [3]", "value": "20 to 100", "unit": "nM"}
    ]},
    {"smiles": "C[C@]12CCC(NC(=O)[C@H]3CCCN3)C[C@@]1(O)CC[C@@H]1[C@@H]2CC[C@]2(C)[C@@H](c3ccc(=O)oc3)CC[C@]12O", "note": "(stereo partly drawn) [Compound C31, (2R)-N-((5S,8R,9S,10R,13R,14S,17R)-5,14-dihydroxy-10,13-dimethyl-17-(2-oxo-2H-pyran-5-yl)hexadecahydro-1H-cyclopenta[a]phenanthren-3-yl)pyrrolidine-2-carboxamide]", "values": [
      {"measurement": "IC50", "setting": "A549 cells; A549, 72 h", "value": "< 20", "unit": "nM"}
    ]},
    {"smiles": "CN(CCO)C1CC[C@@]2(C)[C@H](CC[C@@H]3[C@@H]2CC[C@]2(C)[C@@H](c4ccc(=O)oc4)CC[C@]32O)C1", "note": "(stereo partly drawn) [Compound C32, 5-((5R,8R,9S,10S,13R,14S,17R)-14-hydroxy-3-((2-hydroxyethyl)(methyl)amino)-10,13-dimethylhexadecahydro-1H-cyclopenta[a]phenanthren-17-yl)-2H-pyran-2-one]", "values": [
      {"measurement": "solubility at 24 h", "setting": "[1]; [2]", "value": "< 100", "unit": "µg/mL"},
      {"measurement": "IC50", "setting": "A549 cells; [3]", "value": "100 to 1000", "unit": "nM"}
    ]},
    {"smiles": "C[C@]12CC[C@@H](N)C[C@H]1CC[C@@H]1[C@@H]2CC[C@]2(C)[C@@H](c3ccc(=O)oc3)CC[C@]12O", "note": "[Compound C34, 5-((3R,5R,8R,9S,10S,13R,14S,17R)-3-amino-14-hydroxy-10,13-dimethylhexadecahydro-1H-cyclopenta[a]phenanthren-17-yl)-2H-pyran-2-one]", "values": [
      {"measurement": "IC50", "setting": "A549 cells; A549, 72 h", "value": "> 1000", "unit": "nM"}
    ]},
    {"smiles": "C[C@]12CC[C@H](N)C[C@H]1CC[C@@H]1[C@@H]2CC[C@]2(C)[C@@H](c3ccc(=O)oc3)CC[C@]12O", "note": "[Compound C35, 5-((3S,5R,8R,9S,10S,13R,14S,17R)-3-amino-14-hydroxy-10,13-dimethylhexadecahydro-1H-cyclopenta[a]phenanthren-17-yl)-2H-pyran-2-one]", "values": [
      {"measurement": "IC50", "setting": "A549 cells; A549, 72 h", "value": "< 20", "unit": "nM"}
    ]}
  ]
}
